Consider 22 molecules from US10519154B2, “7-substituted 1-pyridyl-naphthyridine-3-carboxylic acid amides and use thereof” (Bayer Pharma Aktiengesellschaft, priority 2016, dated 2019).

In this assay the target is T1, human M2 receptor (Homo sapiens, UniProt P08172).
T1 sequence (P08172 1-466): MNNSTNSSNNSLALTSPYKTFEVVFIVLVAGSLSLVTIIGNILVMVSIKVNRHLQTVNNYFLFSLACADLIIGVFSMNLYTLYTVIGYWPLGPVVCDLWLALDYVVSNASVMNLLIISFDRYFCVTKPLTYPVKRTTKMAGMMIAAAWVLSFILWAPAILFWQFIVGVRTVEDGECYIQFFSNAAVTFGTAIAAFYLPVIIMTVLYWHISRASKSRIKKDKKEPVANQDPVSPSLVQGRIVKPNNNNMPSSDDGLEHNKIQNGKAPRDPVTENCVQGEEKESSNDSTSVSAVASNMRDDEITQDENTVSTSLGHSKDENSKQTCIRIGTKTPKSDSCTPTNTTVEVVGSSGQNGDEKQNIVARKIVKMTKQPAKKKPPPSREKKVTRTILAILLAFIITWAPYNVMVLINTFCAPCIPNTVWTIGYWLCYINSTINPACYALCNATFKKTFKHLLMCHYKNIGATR
The experiment in a line: Functional M2-GIRK1/4 activation test: allosteric potency (EC50) and efficiency. Particulars: for EC50: Receptor activity EC50, CHO-DUKX-M2-GIRK cells, acetylcholine at EC20, in some cases mean of two or more determinations; for Emax: read-out: Efficiency, boosting of the acetylcholine effect at EC20 acetylcholine concentration; for Emax / Efficiency: CHO-DUKX-M2-GIRK cells; for Efficiency: boosting of the acetylcholine effect at EC20 acetylcholine concentration.

By EC50 is commonly meant the concentration giving half of the maximal effect. Consider `CC[C@@H](NC(=O)c1cn(-c2ncc(F)cc2F)c2nc(N3C[C@@H](O)[C@H](O)C3)ccc2c1=O)C(F)(F)F` [Example 42, 1-(3,5-Difluoropyridin-2-yl)-7-[(3R,4R)-3,4-dihydroxypyrrolidin-1-yl]-4-oxo-N-[(2R)-1,1,1-trifluorobutan-2-yl]-1,4-dihydro-1,8-naphthyridine-3-carboxamide], for which a half-maximal effect (EC50) was put at 295 nM and the Emax came to 100%.
`O=C(N[C@H](C1CC1)C(F)(F)F)c1cn(-c2ncccc2F)c2nc(N3C[C@@H](O)CC3=O)ccc2c1=O` [Example 139, N-[(1R)-1-Cyclopropyl-2,2,2-trifluoroethyl]-1-(3-fluoropyridin-2-yl)-7-[(4S)-4-hydroxy-2-oxopyrrolidin-1-yl]-4-oxo-1,4-dihydro-1,8-naphthyridine-3-carboxamide]: the EC50 came out at 230 nM and the Emax is 100%.
The matching figures for `CC[C@@H](NC(=O)c1cn(-c2ncc(F)cc2F)c2nc(NCC(F)F)ccc2c1=O)C(F)(F)F` [Example 70, 7-[(2,2-Difluoroethyl)amino]-1-(3,5-difluoropyridin-2-yl)-4-oxo-N-[(2R)-1,1,1-trifluorobutan-2-yl]-1,4-dihydro-1,8-naphthyridine-3-carboxamide]: 220 nM and 91%.
The matching figures for `O=C(N[C@H](C1CC1)C(F)(F)F)c1cn(-c2ncccc2Cl)c2nc(N3C[C@@H](O)CC3=O)ccc2c1=O` [Example 22, 1-(3-Chloropyridin-2-yl)-N-[(1R)-1-cyclopropyl-2,2,2-trifluoroethyl]-7-[(4S)-4-hydroxy-2-oxopyrrolidin-1-yl]-4-oxo-1,4-dihydro-1,8-naphthyridine-3-carboxamide]: 575 nM and 85%.
The matching figures for `CC1(NC(=O)c2cn(-c3ncc(F)cc3F)c3nc(N4C[C@@H](O)CC4=O)ccc3c2=O)CC(F)(F)C1` [Example 172, N-(3,3-Difluoro-1-methylcyclobutyl)-1-(3,5-difluoropyridin-2-yl)-7-[(4S)-4-hydroxy-2-oxopyrrolidin-1-yl]-4-oxo-1,4-dihydro-1,8-naphthyridine-3-carboxamide]: 1600 nM and 98%.
For `CC[C@@H](NC(=O)c1cn(-c2ncccc2F)c2nc(N3CC4CC4(O)C3)ccc2c1=O)C(F)(F)F` (mixture of isomers) [Example 134, 1-(3-Fluoropyridin-2-yl)-7-[1-hydroxy-3-azabicyclo[3.1.0]hex-3-yl]-4-oxo-N-[(2R)-1,1,1-trifluorobutan-2-yl]-1,4-dihydro-1,8-naphthyridine-3-carboxamide], the EC50 is 105 nM and the Emax is 100%.
On the same counts, the results for `CC[C@H](NC(=O)c1cn(-c2ncc(F)cc2F)c2nc(N3C[C@@H](C)NC3=O)ccc2c1=O)C(F)(F)F` [Example 143, 1-(3,5-difluoropyridin-2-yl)-7-[(4R)-4-methyl-2-oxoimidazolidin-1-yl]-4-oxo-N-[(2S)-1,1,1-trifluorobutan-2-yl]-1,4-dihydro-1,8-naphthyridine-3-carboxamide] are 90 nM and 90%.
On the same counts, the results for `CC[C@@H](NC(=O)c1cn(-c2ncc(F)cc2F)c2nc(N3C[C@@H](O)[C@@H](O)C3)ccc2c1=O)C(F)(F)F` [Example 41, 1-(3,5-Difluoropyridin-2-yl)-7-[(3R,4S)-3,4-dihydroxypyrrolidin-1-yl]-4-oxo-N-[(2R)-1,1,1-trifluorobutan-2-yl]-1,4-dihydro-1,8-naphthyridine-3-carboxamide] are 330 nM and 100%.
On the same counts, the results for `O=C(NC(C(F)(F)F)C(F)(F)F)c1cn(-c2ncc(F)cc2F)c2nc(N3CC4CC4(O)C3)ccc2c1=O` (single isomer, unassigned) [Example 58, 1-(3,5-Difluoropyridin-2-yl)-N-(1,1,1,3,3,3-hexafluoropropan-2-yl)-7-[1-hydroxy-3-azabicyclo[3.1.0]hex-3-yl]-4-oxo-1,4-dihydro-1,8-naphthyridine-3-carboxamide] are 11 nM and 96%.
Molecule `CC1CC(=O)N(c2ccc3c(=O)c(C(=O)N[C@H](C4CC4)C(F)(F)F)cn(-c4ncc(F)cc4F)c3n2)C1` (single isomer, unassigned) [Example 29] registered an EC50 of 59 nM and an Efficiency of 98.00%.
For `O=C(NC12CC(F)(C1)C2)c1cn(-c2ncc(F)cc2F)c2nc(N3C[C@@H](O)CC3=O)ccc2c1=O` [Example 102, 1-(3,5-Difluoropyridin-2-yl)-N-(3-fluorobicyclo[1.1.1]pent-1-yl)-7-[(4S)-4-hydroxy-2-oxopyrrolidin-1-yl]-4-oxo-1,4-dihydro-1,8-naphthyridine-3-carboxamide], the EC50 was 1060 nM and the Emax stood at 89%.
Regarding `CC(C)(NC(=O)c1cn(-c2ncc(F)cc2F)c2nc(N3CCC(CO)(CO)CC3)ccc2c1=O)C(F)(F)C(F)(F)F` [Example 187], a half-maximal response (EC50) required 265 nM and the Emax stood at 97.5%.
On the same counts, the results for `CC(C)C[C@H](NC(=O)c1cn(-c2ncc(F)cc2F)c2nc(N3C[C@@H](O)[C@H](O)C3)ccc2c1=O)C(F)(F)F` [Example 82, 1-(3,5-Difluoropyridin-2-yl)-7-[(3R,4R)-3,4-dihydroxypyrrolidin-1-yl]-4-oxo-N-[(2S)-1,1,1-trifluoro-4-methylpentan-2-yl]-1,4-dihydro-1,8-naphthyridine-3-carboxamide] are 28 nM and 100%.
On the same counts, the results for `CC1(NC(=O)c2cn(-c3ncc(F)cc3F)c3nc(N4C[C@@H](O)[C@H](O)C4)ccc3c2=O)CC(F)(F)C1` [Example 170, N-(3,3-Difluoro-1-methylcyclobutyl)-1-(3,5-difluoropyridin-2-yl)-7-[(3R,4R)-3,4-dihydroxypyrrolidin-1-yl]-4-oxo-1,4-dihydro-1,8-naphthyridine-3-carboxamide] are 2250 nM and 86%.
On the same counts, the results for `CC(C)C(NC(=O)c1cn(-c2ncc(F)cc2F)c2nc(N3C[C@@H](O)CC3=O)ccc2c1=O)C(F)(F)F` (stereo partly drawn) [Example 154, 1-(3,5-Difluoropyridin-2-yl)-7-[(4S)-4-hydroxy-2-oxopyrrolidin-1-yl]-4-oxo-N-[1,1,1-trifluoro-3-methylbutan-2-yl]-1,4-dihydro-1,8-naphthyridine-3-carboxamide] are 89 nM and 100%.
In the case of `CC(C)(CC(F)(F)F)NC(=O)c1cn(-c2ncc(F)cc2F)c2nc(N3CCNC3=O)ccc2c1=O` [Example 145, 1-(3,5-Difluoropyridin-2-yl)-4-oxo-7-(2-oxoimidazolidin-1-yl)-N-(4,4,4-trifluoro-2-methylbutan-2-yl)-1,4-dihydro-1,8-naphthyridine-3-carboxamide], the EC50 was determined as 435 nM and the Emax was 98.5%.
On the same counts, the results for `CC[C@H](NC(=O)c1cn(-c2c(F)cncc2F)c2nc(N3C[C@@H](O)[C@H](O)C3)ccc2c1=O)C(F)(F)F` [Example 118, 1-(3,5-Difluoropyridin-4-yl)-7-[(3R,4R)-3,4-dihydroxypyrrolidin-1-yl]-4-oxo-N-[(2S)-1,1,1-trifluorobutan-2-yl]-1,4-dihydro-1,8-naphthyridine-3-carboxamide] are 500 nM and 100%.
On the same counts, the results for `CC(C)(NC(=O)c1cn(-c2ncc(F)cc2F)c2nc(N3CC(CO)(CO)C3)ccc2c1=O)C(F)(F)C(F)(F)F` [Example 184, 7-[3,3-Bis(hydroxymethyl)azetidin-1-yl]-1-(3,5-difluoropyridin-2-yl)-4-oxo-N-(3,3,4,4,4-pentafluoro-2-methylbutan-2-yl)-1,4-dihydro-1,8-naphthyridine-3-carboxamide] are 130 nM and 100%.
On the same counts, the results for `O=C(NC1(C(F)(F)F)CCC1)c1cn(-c2ncc(F)cc2F)c2nc(N3C[C@@H](O)[C@H](O)C3)ccc2c1=O` [Example 155, 1-(3,5-Difluoropyridin-2-yl)-7-[(3R,4R)-3,4-dihydroxypyrrolidin-1-yl]-4-oxo-N-[1-(trifluoromethyl)cyclobutyl]-1,4-dihydro-1,8-naphthyridine-3-carboxamide] are 360 nM and 100%.
Take `CC(C)(C)[C@H](NC(=O)c1cn(-c2ncc(F)cc2F)c2nc(N3CCCN(CCO)C3=O)ccc2c1=O)C(F)(F)F` [Example 125, 1-(3,5-Difluoropyridin-2-yl)-7-[3-(2-hydroxyethyl)-2-oxotetrahydropyrimidin-1(2H)-yl]-4-oxo-N-[(2S)-1,1,1-trifluoro-3,3-dimethylbutan-2-yl]-1,4-dihydro-1,8-naphthyridine-3-carboxamide]: the EC50 came to 73 nM and the Emax worked out at 97%.
The matching figures for `O=C(N[C@H](C1CC1)C(F)(F)F)c1cn(-c2ncc(F)cc2F)c2nc(N3CC4CC4(O)C3)ccc2c1=O` (mixture of isomers) [Example 37, N-[(1R)-1-Cyclopropyl-2,2,2-trifluoroethyl]-1-(3,5-difluoropyridin-2-yl)-7-[1-hydroxy-3-azabicyclo[3.1.0]hex-3-yl]-4-oxo-1,4-dihydro-1,8-naphthyridine-3-carboxamide]: 21 nM and 99%.
Molecule `CC[C@@H](NC(=O)c1cn(-c2ncc(F)cc2F)c2nc(N3CC4CC4(O)C3)ccc2c1=O)C(F)(F)F` (single isomer, unassigned) [Example 45] displayed an EC50 of 57 nM and an Efficiency of 96.00%.
